Measurements taken from patent US20170050980A1, “OXADIAZINE COMPOUNDS AND METHODS OF USE THEREOF” (FORUM Pharmaceuticals Inc., priority 2015, published 2017).

The molecules below were run on Aβ42 (assay: In vitro cell screening assay; quantification of Aβ (1-42) peptide by sandwich ELISA). Conditions: Human neuroglioma H4 cells stably expressing human wild type APP751; compounds 0.003-10 μM, incubated overnight (16-18 h); Aβ42 in supernatant by sandwich ELISA; normalized to DMSO and DAPT; read-out: Aβ42 H4 Prot Fre IC50.
Format: cell-based
Method: Human neuroglioma H4 cells were transfected with a pcDNA3.1 plasmid expressing human wild type APP751 cDNA and a stable cell line was generated using G418 selection. Cells were plated at 15,000 cells/well in Costar 96-well plates and placed at 37° C. and 5% CO2. Six hours after plating, cells were washed three times with Pro293™ chemically defined medium, followed by addition of compounds (0.003-10 μM, final DMSO concentration of 0.33%). Plates were incubated overnight (16-18 h) and supernatant was removed for quantification of Aβ peptides by sandwich ELISA. Cytotoxicity was evaluated using Cell-Titer 96W AQueous One Solution Cell Proliferation Assay according to the manufacturer's protocol.
Aβ peptide levels were quantified by sandwich ELISA. 96-well plates were coated with C-terminal specific Aβ antibodies recognizing either Aβ37, Aβ38, Aβ40, Aβ42, Aβ43 or a N-terminal specific Aβ antibody to detect Aβ 1-x. Plates were then blocked overnight at 4° C. with 1% bovine serum albumin (BSA) in PBS-T. Plates were washed and 100 μl of cultured cell supernatant or synthetic Aβ peptide standards and a detection antibody (4G8-HRP) were applied to the blocked plate and incubated overnight at 4° C. The next day, wells were washed before the addition of detection substrate (TMB peroxidase). Plates were then read for absorbance at 450 nm on a Molecular Devices SpectraMax M5e Microplate Reader.
Compound-treated samples were normalized to samples treated with DMSO alone (no inhibition) and to samples treated with DAPT. IC50 values were calculated from values reported as percent of DMSO controls using nonlinear regression, based on a sigmoidal dose—response (variable slope) model. […] used for calculation.

Going from COc1nc(C2=NOC(C)C(c3cn(C)c4ncc(Cl)cc34)N2)ccc1-n1cnc(C)c1 (single isomer, unassigned; (-)) [Example 54C, (−)-5-(5-chloro-1-methyl-1H-pyrrolo [2,3-b]pyridin-3-yl)-3-(6-methoxy-5-(4-methyl-1H-imidazol-1-yl)pyridin-2-yl)-6-methyl-5,6-dihydro-4H-1,2,4-oxadiazine] to COc1nc(C2=NOC(C)C(c3cn(C)c4ncc(C5CC5)cc34)N2)ccc1-n1cnc(C)c1 (single isomer, unassigned; (+)) [Example 56D, (+)-5-(5-cyclopropyl-1-methyl-1H-pyrrolo [2,3-b]pyridin-3-yl)-3-(6-methoxy-5-(4-methyl-1H-imidazol-1-yl)pyridin-2-yl)-6-methyl-5,6-dihydro-4H-1,2,4-oxadiazine], the IC50 falls from 464 nM to 12.5 nM (37-fold). The second is the more potent here.

First: COc1nc(C2=NOC(C)C(c3c4n(c5ccc(Cl)cc35)CCOC4)N2)ccc1-n1cnc(C)c1 (single isomer, unassigned; (-)) [Example 50B, (−)-8-chloro-10-(3-(6-methoxy-5-(4-methyl-1H-imidazol-1-yl)pyridin-2-yl)-6-methyl-5,6-dihydro-4H-1,2,4-oxadiazin-5-yl)-3,4-dihydro-1H-[1,4] oxazino [4,3-a] indole]
Second: COc1nc(C2=NOC(C)C(c3nn(C)c4ccc(Cl)cc34)N2)ccc1-n1cnc(C)c1 (stereo not drawn) [Example 69B, (−)-(cis)-5-(5-chloro-1-methyl-1H-indazol-3-yl)-3-(6-methoxy-5-(4-methyl-1H-imidazol-1-yl)pyridin-2-yl)-6-methyl-5,6-dihydro-4H-1,2,4-oxadiazine]
The IC50 of the first is 26-fold lower: 27 nM for the first, 706 nM for the second.

First: COc1nc(C2=NOC(C)C(c3ccc(Cl)cc3)N2)ccc1-n1cnc(C)c1 (stereo not drawn) [Example 24B, (+)-trans-5-(4-chlorophenyl)-3-[6-methoxy-5-(4-methyl-1H-imidazol-1-yl)pyridin-2-yl]-6-methyl-5,6-dihydro-4H-1,2,4-oxadiazine]
Second: COc1nc(C2=NOC(C)C(c3ccc(Cl)cc3)N2)ccc1-n1cnc(Cl)c1 (single isomer, unassigned; (-)) [Example 42A, (−)-3-(5-(4-chloro-1H-imidazol-1-yl)-6-methoxypyridin-2-yl)-5-(4-chlorophenyl)-6-methyl-5,6-dihydro-4H-1,2,4-oxadiazine]
The IC50 of the first is lower: 15 nM for the first, over 3000 nM for the second.

Compared with COc1nc(C2=NOC(C)C(c3cc4ccc(Cl)cc4o3)N2)ccc1-n1cnc(C)c1 (single isomer, unassigned) [Example 46C, 5-(6-chlorobenzofuran-2-yl)-3-(6-methoxy-5-(4-methyl-1H-imidazol-1-yl)pyridin-2-yl)-6-methyl-5,6-dihydro-4H-1,2,4-oxadiazine], COc1nc(C2=NOC(C)C(c3ccc(Cl)c(F)c3)N2)ccc1-n1cnc(C)c1 (stereo not drawn) [40-IA or 40-IIA, (−)-(cis)-5-(4-chloro-3-fluorophenyl)-3-(6-methoxy-5-(4-methyl-1H-imidazol-1-yl)pyridin-2-yl)-6-methyl-5,6-dihydro-4H-1,2,4-oxadiazine] is 6.3-fold higher in IC50: 291 nM for the first, 1840 nM for the second. The first is the more potent here.

COc1nc(C2=NOC(C)C(c3cccc(Cl)c3)N2)ccc1-n1cnc(C)n1 (single isomer, unassigned; (-)) [Example 53A, (−)-5-(3-chlorophenyl)-3-(6-methoxy-5-(3-methyl-1H-1,2,4-triazol-1-yl)pyridin-2-yl)-6-methyl-5,6-dihydro-4H-1,2,4-oxadiazine] and COc1nc(C2=NOC(C)C(c3cccc(Cl)c3)N2)ccc1-n1cnc(Cl)c1 (single isomer, unassigned; (-)) [Example 47A, (−)-3-(5-(4-chloro-1H-imidazol-1-yl)-6-methoxypyridin-2-yl)-5-(3-chlorophenyl)-6-methyl-5,6-dihydro-4H-1,2,4-oxadiazine] cannot be ordered by IC50: over 3000 nM for the first, over 3000 nM for the second.

COc1nc(C2=NOC(C)C(c3cn(C)c4ncc(C(F)(F)F)cc34)N2)ccc1-n1cnc(C)c1 (single isomer, unassigned; (+)) [44D or 45D, (+)-3-(6-methoxy-5-(4-methyl-1H-imidazol-1-yl)pyridin-2-yl)-6-methyl-5-(1-methyl-5-(trifluoromethyl)-1H-pyrrolo[2,3-b]pyridin-3-yl)-5,6-dihydro-4H-1,2,4-oxadiazine] and COc1nc(C2=NOC(C)C(c3cn(C)c4cc(F)c(F)cc34)N2)ccc1-n1cnc(C)c1 (single isomer, unassigned; (+)) [Example 39A, (+)-5-(5,6-difluoro-1-methyl-1H-indol-3-yl)-3-(6-methoxy-5-(4-methyl-1H-imidazol-1-yl)pyridin-2-yl)-6-methyl-5,6-dihydro-4H-1,2,4-oxadiazine] are within 1.5-fold of each other in IC50: 4.3 nM for the first, 5.4 nM for the second.

COc1nc(C2=NOC(C)C(c3cc4ccc(Cl)cc4o3)N2)ccc1-n1cnc(C)c1 (single isomer, unassigned) [Example 46B, 5-(6-chlorobenzofuran-2-yl)-3-(6-methoxy-5-(4-methyl-1H-imidazol-1-yl)pyridin-2-yl)-6-methyl-5,6-dihydro-4H-1,2,4-oxadiazine] and COc1nc(C2=NOC(C)C(c3c4n(c5ccc(Cl)cc35)CCOC4)N2)ccc1-n1cnc(C)c1 (single isomer, unassigned; (+)) [Example 50D, (+)-8-chloro-10-(3-(6-methoxy-5-(4-methyl-1H-imidazol-1-yl)pyridin-2-yl)-6-methyl-5,6-dihydro-4H-1,2,4-oxadiazin-5-yl)-3,4-dihydro-1H-[1,4] oxazino [4,3-a] indole] are within 1.5-fold of each other in IC50: 5.1 nM for the first, 6.3 nM for the second.

Compared with COc1nc(C2=NOC(C)C(c3cn(C)c4ncc(C(F)(F)F)cc34)N2)ccc1-n1cnc(C)c1 (single isomer, unassigned; (-)) [44A or 45A, (−)-3-(6-methoxy-5-(4-methyl-1H-imidazol-1-yl)pyridin-2-yl)-6-methyl-5-(1-methyl-5-(trifluoromethyl)-1H-pyrrolo[2,3-b]pyridin-3-yl)-5,6-dihydro-4H-1,2,4-oxadiazine], COc1nc(C2=NOC(C)C(c3cn(C)c4ncc(Cl)c(F)c34)N2)ccc1-n1cnc(C)c1 (single isomer, unassigned; (-)) [Example 62B, (−)-5-(5-chloro-4-fluoro-1-methyl-1H-pyrrolo [2,3-b]pyridin-3-yl)-3-(6-methoxy-5-(4-methyl-1H-imidazol-1-yl)pyridin-2-yl)-6-methyl-5,6-dihydro-4H-1,2,4-oxadiazine] is 2.8-fold higher in IC50: 173 nM for the first, 484 nM for the second. The first is the more potent here.

COc1nc(C2=NOC(C)C(c3cc4ccc(Cl)cc4o3)N2)ccc1-n1cnc(C)c1 (single isomer, unassigned) [Example 46D, 5-(6-chlorobenzofuran-2-yl)-3-(6-methoxy-5-(4-methyl-1H-imidazol-1-yl)pyridin-2-yl)-6-methyl-5,6-dihydro-4H-1,2,4-oxadiazine] and COc1nc(C2=NOC(C)C(c3cn(C)c4cc(F)c(Cl)cc34)N2)ccc1-n1cnc(C)c1 (single isomer, unassigned; (+)) [Example 21D, (+)-5-(5-chloro-6-fluoro-1-methyl-1H-indol-3-yl)-3-(6-methoxy-5-(4-methyl-1H-imidazol-1-yl)pyridin-2-yl)-6-methyl-5,6-dihydro-4H-1,2,4-oxadiazine] are within 1.5-fold of each other in IC50: 2.8 nM for the first, 2 nM for the second.

Compared with COc1nc(C2=NOC(C)(C)C(c3ccc(Cl)cc3)N2)ccc1-n1cnc(C)c1 (single isomer, unassigned; (-)) [Example 23A, (−)-5-(4-chlorophenyl)-3-[6-methoxy-5-(4-methyl-1H-imidazol-1-yl)pyridin-2-yl]-6,6-dimethyl-5,6-dihydro-4H-1,2,4-oxadiazine], COc1nc(C2=NOC(C)C(c3cc4ccc(Cl)cc4o3)N2)ccc1-n1cnc(C)c1 (single isomer, unassigned) [Example 46A, 5-(6-chlorobenzofuran-2-yl)-3-(6-methoxy-5-(4-methyl-1H-imidazol-1-yl)pyridin-2-yl)-6-methyl-5,6-dihydro-4H-1,2,4-oxadiazine] is 5.1-fold lower in IC50: 1140 nM for the first, 225 nM for the second. The second is the more potent here.

Compared with COc1nc(C2=NOC(C3CC3)C(c3cn(C)c4ncc(F)c(F)c34)N2)ccc1-n1cnc(C)c1 (single isomer, unassigned; (+)) [Example 60A, (+)-6-cyclopropyl-5-(4,5-difluoro-1-methyl-1H-pyrrolo [2,3-b]pyridin-3-yl)-3-(6-methoxy-5-(4-methyl-1H-imidazol-1-yl)pyridin-2-yl)-5,6-dihydro-4H-1,2,4-oxadiazine], COc1nc(C2=NOC(C)C(c3cn(C)c4cc(F)c(Cl)cc34)N2)ccc1-n1cnc(C)c1 (single isomer, unassigned; (-)) [Example 21A, (−)-5-(5-chloro-6-fluoro-1-methyl-1H-indol-3-yl)-3-(6-methoxy-5-(4-methyl-1H-imidazol-1-yl)pyridin-2-yl)-6-methyl-5,6-dihydro-4H-1,2,4-oxadiazine] is 5.6-fold lower in IC50: 367 nM for the first, 65 nM for the second. The second is the more potent here.

For COc1cc(C2=NOC(C)C(c3ccc(Cl)cc3)N2)ccc1-n1cnc(C)c1 (single isomer, unassigned; (-)) [Example 43A, (−)-5-(4-chlorophenyl)-3-(3-methoxy-4-(4-methyl-1H-imidazol-1-yl)phenyl)-6-methyl-5,6-dihydro-4H-1,2,4-oxadiazine], the IC50 was over 3000 nM.
